Measurements: patent publication US7714014B2, “Targeting GLI proteins in human cancer by small molecules” (The Regents of the University of California, priority 2005, dated 2010)

How the values were obtained:
[1] = Body weight of mice after in vivo treatment; set-up: species or system mouse; settings: three weeks after tumor inoculation and treatment
Protocol: As one preliminary in vivo toxicity study of FN1-8, it was examined if there was loss of body weight in the mice after the FN1-8 treatment. Three weeks after the initial tumor inoculation and the treatment as described in the previous examples, body weights of DMSO control group (n=11) and FN1-8 treated group (n=8) were measured using a scale.

[2] = test system: human normal skin fibroblast cells (Malme-3); test: Time course of cell survival (flow cytometry); type: cell-based; settings: 10 μM or 20 μM, after 6 days
Protocol: To investigate whether small molecule compounds of the present invention, e.g., FN1-8, specifically kill cancer cells, time course experiments of cell survival after administration of 10 μM and 20 μM of FN1-8 were also conducted using human normal skin fibroblast cells (Malme-3).

[3] = test system: GLI1, GLI2 and GLI/TAFII31 induced transcription in NSCLC A549 cells; test: 6xGLI BS-luciferase reporter assay (GLI / TAFII31 co-expression); type: cell-based, human; settings: for reduction of transcription activity (6xGLI BS-luciferase): 20 μM, 16-20 hours
Protocol: One day before transfection, cells (1×10^5) were plated in 12-well plates with growth medium without antibiotics. When cells reached 80-90% of confluence they were co-transfected using 0.5 μg of each promoter construct in pGL3Basic vector and 0.025 μg pRL-TK Vector (Promega; Madison, Wis.) containing Renilla Luciferase as an internal control for the transformation efficiency. Lipofectamine 2000™ (Invitrogen Life Technologies) was used to mediate transfection for about 6 hours. Then the medium was replaced with fresh medium containing various small molecule compounds at a concentration of 30 μM, and the resulting cells were cultured for an additional 18-24 hours and subjected to luciferase assay. Briefly, cells were lysed in a lysis buffer and Firefly and Renilla Luciferase activities in cells of each well, were measured using Dual-Luciferase Assay System (Promega) and an illuminometer. The measured luciferase activities were normalized to pRL-TK Vector activity and were given relative to the basal activity of empty pGL3-Basic Vector, which was set to unity. The data shown represent mean values (±S.D.). All measurements were performed in triplicate and repeated in at least three independent experiments. The human Wnt-2 promoter-luciferase construct, the human SOCS3 promoter-Luciferase construct and the human Gremlin promoter-luciferase construct were cloned and characterized in the laboratory of Dr. Jablons at the University of California, San Francisco (San Francisco, Calif.; He et al., Biochem Biophy Res Comm, 2003; and unpublished data). The 6GLI-TKO-luciferase construct (containing 6 repeats of consensus GLI DNA binding sequence) was kindly provided by Dr. Matthias Hebrok's laboratory at the University of California, San Francisco (San Francisco, Calif.).
Further, the specificity of the compounds of the present invention in inhibiting GLI activity and to determine whether these compounds block the interaction between GlLI and TAFII31 as described above, was examined. Specifically, in this analysis, an expression construct linking the 6 repeats of GLI-binding sites (6xGLI BS) to a luciferase reporter gene as a surrogate measurement of the GLI-dependent transcription was used to examine the 6xGLI BS-luciferase activity after treatment of NSCLC A549 cells with compound FN1-8. […] This finding again confirmed that both GLI1 and GLI2 specifically bound to the GLI-binding sites and were functionally active in transcription. […] After treatment of the A549 cells for 16-20 hours with 20 μM, FN1-8 both GLI alone and GLI/TAFII31 induced 6xGLI BS-luciferase transcription was reduced.

[4] = test system: NSCLC cell lines H1299, A549, H460 and colon cancer cell line SW480; test: Cell survival assay (crystal violet), screening; type: cell-based, human; settings: 50 and 100 μM, 3 days, all cancer cell lines tested
Protocol: Typically, the small molecule compounds of the present invention were dissolved in DMSO at a concentration of 30 mM. The small molecule compounds were then tested under cell culture conditions at different concentrations ranging from 0, 10, 30, 50, to 100 uM. To determine cell survival after treatment, the cells were incubated with the small molecule compounds in 6-well plates for about 3 days. After removal of the cell culture medium, 1-ml of 0.5% crystal violet solution (prepared in 20% ethanol and 20% methanol) was added to stain the cells for 5 min. Then the crystal violet solution was rinsed clean with tap water. Cell survival was estimated based on the density of crystal stained plates.
Cancer cell lines were plated in 6-well plates as described, and incubated with 50, and 100 μM of each compound (stocks were dissolved in DMSO at 30 mM) for 3 days. […] Apoptosis analysis was also carried out by using flow cytometry and the results were consistent (data not shown). Therefore, using the rational design design-screen approach described herein, additional small molecule compound, FN1-8, inhibiting GLI3 transcription activation domain (TAF-binding domain) was identified.

[5] = test system: H358 (NSCLC); test: Apoptosis analysis (Annexin V FITC, flow cytometry); type: cell-based, human; settings: 3 days
Protocol: Apoptosis was analyzed by using an Annexin V FITC Apoptosis Detection Kit (Biosource, Camarillo, Calif.), according to the manufacturer's protocol. After treatment with different small molecule compounds at various concentrations for about 3 days, cells were harvested by trypsinization, stained and immediately analyzed by flow cytometry (FACScan; Decton Dickinson, Franklin Lake, N.J.). Early apoptotic cells with exposed phosphatidylserine but intact cell membranes will bind to Annexin V-FITC, but not propidium iodide (PI). Cells in necrotic or late apoptotic stages will be labeled with both Annexin V-FITC and PI. “% apoptotic cells” or “% apoptosis” refers to the combined early and late apoptotic cells.
Dose titration experiments of small molecule compound FN1-8 was performed using the NSCLC cell lines A549, H358, and H322. A 549, H358, and H322 cells were plated in 6-well plates and incubated with DM SO (control) or 7.5 μM, 10 μM, 15 μM, 20 μM, and 30 μM of FN1-8, respectively, for 3 days. A dramatic and dose-dependent cell killing in these cell lines was observed when FN1-8 was added at 15 μM or more. FN1-8 induced cell killing in A549 and […] at slightly lower concentrations than in H322 cells (data not shown). After 3 days, approximately 28% of the A549 cells and 58% of H358 underwent apoptosis when incubated with 20 μM FN1-8 (Table 3).

[6] = test system: Hedgehog signaling pathway in NSCLC tumor (H460); test: Semi-quantitative RT-PCR of Hh pathway genes in xenograft tumors; type: in vivo, mouse
Protocol: (§1) To examine whether the lead compound FN1-8 suppressed tumor growth through inhibition of the Hedgehog signaling pathway in vivo, expression of the key components and direct target genes of the Hh pathway (e.g., Shh, Ptch1, Gli1, Gli2, Gli3, Dvl-3) were analyzed by semi-quantitative RT-PCR using total RNA isolated from the xenograft tumors. GAPDH served as a control. This RT-PCR analysis was performed using a “pooled” tumor from two randomly selected mice of each group with reasonable size tumors.

[7] = test system: Hedgehog signaling pathway in HT29 tumor; test: as above; type: in vivo, mouse; settings: HT29 xenograft tumor (negative control)
Protocol: as §1

In the case of `O=C(NCCc1ccc(O)cc1)C1C(c2ccccc2)=NN(c2ccccc2)C1c1ccccc1` (centres unmarked) [FN1-8, N-(2-(4-Hydroxyphenyl)ethyl)-1,3,5-triphenyl-4,5-dihydro-pyrazole-4-carboxyamide], the “loss of body weight” value [1] is reported as “No noticeable loss of the body weight”, the “cell killing in normal cells” value [2] is reported as “no cell killing” and the “GLI protein-TAF-induced transcriptional activation” value ([3]; A549 (FIG. 16)) is reported as “reduces GLI protein-TAF-induced transcriptional activation”. The “reduction of transcription activity (6xGLI BS-luciferase)” value (“reduction of transcription activity” below) ([3]; GLI1 cotransfected with TAFII31) was “about 70%”, the “reduction of transcription activity” value ([3]; GLI2 cotransfected with TAFII31) was “about 50%” and the “reduction of transcription activity” value ([3]; GLI alone) was “approximately 30%”. The cell killing [4] was “Dramatic cell killing”, the “% of apoptotic cells” value ([5]; H358, 10 μM) was 15.2% and the “% of apoptotic cells” value ([5]; H358, 20 μM) was 58.1%. The “Hh signaling in tumor (RT-PCR)” value [6] was “inhibited” and the “Hh signaling in tumor (RT-PCR)” value [7] was “no noticeable changes”.
